# Measurements as given in patent US20260327255A1, “LIGAND-DIRECTED COVALENT MODIFICATION OF AMINO ACID SIDE CHAINS USING CYCLIC IMINE MANNICH ELECTROPHILES” (Purdue Research Foundation, priority 2022, published 2026).
# “Also recorded” adds a separate entry of the source.
# Legend:
# [1] = Reaction of cyclic imines with N-acetyl-L-tyrosine methylamide (HPLC/LC-MS); details: for reactivity to tyrosine: in words, Ac-Tyr-NHMe
# Experimental: The reaction was monitored using liquid chromatography/mass spectrometry (LC/MS).
# Reactions were conducted under pseudo first order conditions with an excess of one reactant. The reduction in the concentration of the limiting reactant A was measured at various time points by HPLC analysis. Rates of imine 1 with N-Ac-Tyr-NMe, indole-3-butyric acid, and 1H-pyrrole-1-propionic acid and of imine 2 with N-Ac-Tyr-NMe were measured.
# Reaction of imine 1 (5 mM) with (A) N-Ac-Tyr-NHMe (100 mM) or (B) indole-3-butyrate (100 mM) at indicated time points.
# Reaction of (A) imine 1 (5 mM) with N-Ac-Tyr-NHMe (100 mM) at 37° C. or (B) at room temperature. (C) imine 2 (5 mM) with N-Ac-Tyr-NHMe (100 mM) at 37° C. (D) imine 1 (5 mM) with indole-3-butyrate (100 mM) (E) imine 1 (10 mM) with 1 mM 1H-pyrrole-1-propionate (F) iminium 6 (5 mM) with N-Ac-Tyr-NHMe (100 mM) at 37° C. at pH 7 (G) iminium 6 (5 mM) with N-Ac-Tyr-NHMe (100 mM) at 37° C. at pH 3 at indicated time points.
# Several cyclic imines (5 mM) were incubated with a simple tyrosine analog N-acetyl-L-tyrosine methylamide (Ac-Tyr-NHMe) in PBS pH 7 at 37° C. (FIGS. 2-3). The reactivity was quantitated by UV integration on HPLC with liquid chromatography/mass spectrometry (LC/MS) confirmation of reaction product identity (FIG. 4). Under these pseudo-first order reaction conditions, reaction half-lives and second-order rate constants were determined.
# [2] = Stability of cyclic imines in aqueous media (LC/MS); type: physicochemical; details: 96-hours incubation in PBS, 0.1M HCl, 0.1M NaOH
# Experimental: To validate the stability of cyclic imines as covalent warheads, imines 1-4 were evaluated by LC/MS after 96-hours incubation in PBS, 0.1M HCl, and 0.1M NaOH (Table 1).
# [3] = Hydrolysis of aromatic ester imine in water / PBS; type: physicochemical
# Aqueous solubility = type: physicochemical
compound,measurement,setting,value
C#CCn1c(=O)cnc2ccccc21 [Compound 5],reactivity to tyrosine,"[1]; PBS pH 7, 37° C.",unreactive
Oc1cnc2ccccc2n1 [Compound 4],stability (in words),[2],stable under all conditions
same,reactivity to tyrosine,"[1]; PBS pH 7, 37° C.",unreactive
O=c1cnc2ccccc2o1 [Compound 3],degraded at 1 h,"[3]; PBS, pH 7, within an hour",70%
same,stability in water,[3]; water,stable in water
same,stability (in words),[2],hydrolyzed under basic conditions; also recorded: unstable in PBS
same,reactivity to tyrosine,"[1]; PBS pH 7, 37° C.",did increase the rate of Mannich addition; also recorded: low intrinsic reactivity
Cc1c[nH]c2ccccc12 [3-methyl indole],aqueous solubility,Aqueous solubility,poor aqueous solubility
O=C1C=NC2CCCCC2O1 (centres unmarked) [Compound 2],stability (in words),[2],hydrolyzed under basic conditions
same,reaction half-life (t1/2),"[1]; 5 mM imine, 100 mM Ac-Tyr-NHMe, PBS pH 7, 37° C.",40 min
same,second-order rate constant,"[1]; 37° C., pseudo-first order conditions",0.0029 M⁻¹ s⁻¹
same,increase in rate constant relative to 1,"[1]; relative to imine 1, Ac-Tyr-NHMe",~ 10 fold
CC1=NCCC1 [Compound 10],reactivity to tyrosine,"[1]; PBS pH 7, 37° C.",no
C1=NCCc2ccccc21 [Compound 9],reactivity to tyrosine,"[1]; PBS pH 7, 37° C.",limited
